Data: patent publication US20100184708A1, “USE OF GLY-PRO-GLU-OH (GPE) AS A THERAPEUTIC AGENT” (priority 2007, published 2010)

Legend:
[1] = Cytotoxicity in the HBV assay (dye uptake cell viability); assay type: cell-based; details: human, HepG2-2.2.15 cells, peptide 10 micrograms per ml, % cell control
Experimental: HepG2-2.2.15 cells were plated in 96-well microtiter plates. After 16-24 hours the confluent monolayer of HepG2-2.2.15 cells was washed and the medium was replaced with complete medium containing test peptide—10 micrograms per ml—in duplicate. Lamivudine (3TC) was used as the positive control, while media alone was added to the cells as a negative control (virus control). Three days later the culture medium was replaced with fresh medium containing the peptide. Six days following the initial administration of the peptide, the cell culture supernatants was collected, treated with pronase and DNAse and then used in a real-time quantitative TaqMan PCR assay. The PCR-amplified HBV DNA was detected in real-time by monitoring increases in fluorescence signals that result from the exonucleolytic degradation of a quenched fluorescence probe molecule that hybridizes to the mplified HBV DNA. For each PCR amplification, a standard curve was simultaneously generated using dilutions of purified HBV DNA. Antiviral activity was calculated from the reduction in HBV DNA levels (% virus control). A novel dye uptake assay was then employed to measure cell viability, which is used to calculate toxicity (% cell control).

[2] = Cytotoxicity testing in MRC-5 cells; assay type: cell-based, human; details: human, 6 days incubation, CellTiter 96, read-out: % Cell viability
Pseudomonas aeruginosa = assay type: cell-based; details: 5 micrograms per ml
Streptococcus pneumoniae = assay type: cell-based; details: 5 micrograms per ml
MRSA = details: 5 micrograms per ml
[3] = Cytotoxicity in the HIV-1 assay (MTS cell viability); details: human, CEM-SS cells
HIV-1IIIB = assay: HIV-1 antiviral assay (CPE reduction); assay type: cell-based; details: peptide 10 micrograms per ml; 6 days post-infection; MTS
CEM-SS cells = assay: Cytotoxicity in the HIV-1 assay (MTS cell viability); details: peptide 10 micrograms per ml, MTS
MRC-5 cells = assay: Cytotoxicity testing in MRC-5 cells; assay type: cell-based, human; details: 6 days incubation, CellTiter 96

NCC(=O)N1CCC[C@H]1C(=O)N[C@@H](CCC(=O)O)C(=O)O [IGF-I (1-3), Gly-Pro-Glu-OH]
viability at 144 h, 10 micrograms per ml [1]: 98.2% | viability at 144 h [2]: 100% | % inhibition (Pseudomonas aeruginosa): 0.0% | % inhibition (Streptococcus pneumoniae): 0.0% | % inhibition (MRSA): 0.0% | viability at 10 micrograms per ml [3]: 100%

Cc1cn([C@H]2C[C@H](N=[N+]=[N-])[C@@H](CO)O2)c(=O)[nH]c1=O [AZT, reference compound]
% CPE reduction in HIV-1 infected CEM-SS cells (HIV-1IIIB): 99% | % Cell viability (CEM-SS cells): 97%

Nc1nc(O)c2ncn(COC(CO)CO)c2n1 [Ganciclovir, reference compound]
% Cell viability (MRC-5 cells): 100%
